{"source": "patent US20070037883A1", "about": "“Therapeutic compositions” (priority 2003, published 2007)", "key": {"[1]": {"target": "T1, gp91phox-containing NADPH-oxidase in the mouse macrophage cell line J774 (Mus musculus, UniProt Q61093)", "T1 construct": "endogenous in cells; host or cells: J774 mouse macrophage cell line (intact cells)", "T1 sequence (Q61093 2-570 limits assumed)": "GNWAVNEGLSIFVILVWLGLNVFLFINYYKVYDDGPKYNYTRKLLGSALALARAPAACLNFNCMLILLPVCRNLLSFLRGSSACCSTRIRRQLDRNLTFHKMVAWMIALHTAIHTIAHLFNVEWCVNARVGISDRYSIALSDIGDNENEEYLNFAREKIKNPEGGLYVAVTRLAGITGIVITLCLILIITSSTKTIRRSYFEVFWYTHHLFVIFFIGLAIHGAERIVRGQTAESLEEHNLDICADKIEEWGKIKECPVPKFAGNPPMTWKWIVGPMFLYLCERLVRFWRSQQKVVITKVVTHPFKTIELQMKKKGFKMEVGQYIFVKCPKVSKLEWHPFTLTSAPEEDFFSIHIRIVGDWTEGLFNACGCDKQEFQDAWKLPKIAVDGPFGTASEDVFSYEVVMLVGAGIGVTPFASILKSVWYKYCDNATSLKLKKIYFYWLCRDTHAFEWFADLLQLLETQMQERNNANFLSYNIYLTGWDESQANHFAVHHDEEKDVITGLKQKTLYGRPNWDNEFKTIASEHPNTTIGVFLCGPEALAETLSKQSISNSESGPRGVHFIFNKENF", "T1 sequence (Q61462 1-192 partner)": "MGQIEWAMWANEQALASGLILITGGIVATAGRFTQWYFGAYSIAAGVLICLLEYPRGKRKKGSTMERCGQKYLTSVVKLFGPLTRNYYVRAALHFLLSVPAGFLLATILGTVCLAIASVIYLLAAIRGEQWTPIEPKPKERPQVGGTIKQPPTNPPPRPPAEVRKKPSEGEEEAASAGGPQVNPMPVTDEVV", "test": "NADPH oxidase activity in intact J774 mouse macrophages", "assay_type": "cell-based", "conditions": "FIG. 2b"}, "[2]": {"target": "endothelial nitric oxide synthase (Homo sapiens, UniProt P29474)", "sequence (P29474 2-1203)": "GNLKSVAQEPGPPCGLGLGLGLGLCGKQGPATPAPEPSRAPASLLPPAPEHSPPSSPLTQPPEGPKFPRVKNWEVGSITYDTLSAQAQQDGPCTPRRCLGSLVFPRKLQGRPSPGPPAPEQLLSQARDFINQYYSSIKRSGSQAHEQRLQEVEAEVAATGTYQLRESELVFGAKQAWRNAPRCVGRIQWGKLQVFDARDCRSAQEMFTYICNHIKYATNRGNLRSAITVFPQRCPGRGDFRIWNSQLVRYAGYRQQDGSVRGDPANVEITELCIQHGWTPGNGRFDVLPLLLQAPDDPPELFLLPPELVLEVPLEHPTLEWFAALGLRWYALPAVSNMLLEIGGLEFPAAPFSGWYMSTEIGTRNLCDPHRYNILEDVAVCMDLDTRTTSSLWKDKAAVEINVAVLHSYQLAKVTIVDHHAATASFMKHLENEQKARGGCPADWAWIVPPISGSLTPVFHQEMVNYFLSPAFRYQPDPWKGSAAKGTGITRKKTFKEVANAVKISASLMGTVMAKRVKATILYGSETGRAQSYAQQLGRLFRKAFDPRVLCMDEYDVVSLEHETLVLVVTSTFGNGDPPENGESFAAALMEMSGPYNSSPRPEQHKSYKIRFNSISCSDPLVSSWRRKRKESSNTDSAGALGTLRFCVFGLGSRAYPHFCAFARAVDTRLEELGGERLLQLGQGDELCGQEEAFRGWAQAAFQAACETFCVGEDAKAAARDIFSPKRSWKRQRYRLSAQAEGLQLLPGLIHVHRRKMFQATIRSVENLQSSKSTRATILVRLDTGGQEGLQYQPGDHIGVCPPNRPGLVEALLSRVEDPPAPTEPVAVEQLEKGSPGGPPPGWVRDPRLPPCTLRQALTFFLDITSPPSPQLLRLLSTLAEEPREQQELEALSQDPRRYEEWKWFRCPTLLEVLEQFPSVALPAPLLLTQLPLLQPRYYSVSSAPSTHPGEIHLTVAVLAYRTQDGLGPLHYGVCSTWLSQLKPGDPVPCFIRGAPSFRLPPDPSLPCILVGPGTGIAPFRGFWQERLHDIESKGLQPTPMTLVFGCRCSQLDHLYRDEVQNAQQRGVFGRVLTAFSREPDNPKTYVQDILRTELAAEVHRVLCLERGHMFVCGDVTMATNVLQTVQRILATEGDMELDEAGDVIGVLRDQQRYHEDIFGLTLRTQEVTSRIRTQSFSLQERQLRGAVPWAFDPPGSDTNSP", "conditions": "read-out: IC50, inhibition of endothelial nitric oxide synthase; Stuehr et al. 1991; Wang et al. 1993; cited from earlier work"}, "Nox4 mRNA": {"test_system": "Nox4 mRNA", "test": "Nox4 mRNA expression in cultured mouse VSMCs, real-time PCR", "assay_type": "cell-based", "conditions": "500 nmol/L oligonucleotide, 24 h, FIG. 9", "procedure": "Mouse VSMCs were plated sparsely onto 96-well ViewPlates (Packard Bioscience) (for superoxide measurements) or onto 35 mm culture dishes (for RNA extraction) such that they were 30-50% confluent at the time of transfection 24 h later. At the time of transfection, cells were washed with serum- and antibiotic free DMEM and were then incubated in serum- and antibiotic-free DMEM containing 8 μL/mL Oligofectamine Transfection Reagent (Invitrogen Life Technologies) complexed with the antisense (0-1000 nmol/L), mismatch (500 nmol/L) or scrambled (560 nmol/L) oligonucleotides. […]\nRNA was extracted from cultured and freshly isolated mouse VSMCs, and from freshly isolated whole aortas using RNAwiz (Ambion) according to the manufacturer's protocol. RNA concentrations were determined spectrophotometrically by measuring absorbance at 260 nm. […]\nReal-time PCR and the ΔΔCt method were used as previously described to examine mRNA expression of Nox4 and Nox1 relative to a “reference” sample. […] 18S ribosomal RNA was used as the internal standard for each reaction and was detected with commercially available rodent 18S primers and a 5′-VIC-labeled probe (PE Biosystems; Table 7).\nNox4 was amplified in duplex with 18S in PCR mixtures (25 μL final volume) containing 1× TaqMan (registered trademark). […] Reactions were performed and fluorescence monitored in the ABI Prism 7700 Sequence Detector (PE Biosystems)."}}}
{"molecule": "1-amino-4[[4[[4-chloro-6-[[n-sulfophenyl]amino]-1,3,5-triazin-2-yl]amino]-3-sulfophenyl]amino]-9,10-dihydro-9,10-dioxo-2-anthracene-sulfonic acid wherein n is 3 or 4 [Reactive blue-2]", "values": [{"measurement": "effect on gp91phox-containing NADPH-oxidase in J774 macrophages / phagocytic cells", "setting": "[1]", "result": "ineffective"}]}
{"molecule": "c1ccc2c(c1)[I+]c1ccccc1-2", "note": "[DPI, diphenyleneiodonium]", "values": [{"measurement": "IC50", "setting": "[2]", "result": "0.18 to 0.3", "unit": "µM"}]}
{"molecule": "+13/+33 mismatch: mismatch control oligonucleotide TAGGCCAGCAAGCTCCTACA [SEQ ID NO:18], differs in three base positions (chemistry not given here)", "values": [{"measurement": "reduction in Nox4 mRNA expression", "setting": "Nox4 mRNA", "result": "no effect"}]}
{"molecule": "+13/+33 scrambled: scrambled control oligonucleotide CGTCACGCTCAGCTCACCGT [SEQ ID NO:19], same base composition in random order (chemistry not given here)", "values": [{"measurement": "reduction in Nox4 mRNA expression", "setting": "Nox4 mRNA", "result": "no effect"}]}
